Experimental data reported in US20020095030A1, “FLIP GENES AND FLIP PROTEINS” (priority 1997, published 2002).
Peptide text beside a SMILES is read from it. * marks the point of attachment. Cbz = O=C(OCc1ccccc1)*; CH2F = FC*

Test system: 293T-cells
Test: Apoptosis by over-expression of TRAMP in 293T cells (Cell Death Detection ELISA)
Format: cell-based, human
Conditions: 25 μM in medium

COC(=O)C[C@H](NC(=O)[C@H](C)NC(=O)[C@@H](NC(=O)OCc1ccccc1)C(C)C)C(=O)CF [z-VAD-fmk] (Cbz-Val-Ala-Asp(OMe)-CH2F)
protection of TRAMP over expressing cells: 100%
